From patent US6355799B1, “Substituted benzene compounds, process for their preparation, and herbicidal and defoliant compositions containing them” (ISK Americas Incorporated, priority 1997, dated 2002)

Tests used:
Format in all cases: in vivo
[1] = system: upland rice (Oryza sp., var. Tebonnet, RICE); assay: Pre-emerge test, crop safety; conditions: crop damage rating 0-100, 14 days after application
Method in brief: (§1)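 Herbicidal damage is scored 0 (none) to 100 (complete plant death) two weeks after a simulated field spray. Rates span 15–1000 g ai/ha, delivered in acetone at 187 l/ha. For post-emergence treatments, plants have 2–3 leaves and the spray carries 0.25% v/v non-ionic surfactant.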

[2] = system: field corn (Zea mays L., var. Dekalb 535, CORN); assay: Pre-emerge test, crop safety; conditions: crop damage rating 0-100, 14 days after application
Method in brief: as §1

[3] = system: lambsquarters (Chenopodium album, CHEAL); assay: Post-emerge test, greenhouse herbicide activity screening; conditions: post-emerge, 14 days after application, rating scale 0-100
Method in brief: (§2)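 Plants grown in 10 cm pots of sandy loam mix received acetone-dissolved compounds through a moving flat-fan nozzle. Doses ranged from 15 to 1000 g ai/ha. Pre-emerge pots were seeded one day earlier, post-emerge pots 8–21 days earlier. Fourteen days on, each pot was graded 0–100 for damage.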

[4] = system: green foxtail (Setaria viridis, SETVI); assay: as above; conditions: post-emerge, 14 days after application, rating scale 0-100
Method in brief: as §2

[5] = system: barnyardgrass (Echinochloa crus-galli, ECHCG); assay: as above; conditions: post-emerge, 14 days after application, rating scale 0-100
Method in brief: as §2

[6] = system: redroot pigweed (Amaranthus retroflexus, AMARE); assay: as above; conditions: post-emerge, 14 days after application
Method in brief: as §2

[7] = system: velvetleaf (Abutilon theophrasti, ABUTH); assay: as above; conditions: post-emerge, 14 days after application, rating scale 0-100
Method in brief: as §2

[8] = system: ivyleaf morningglory (Ipomoea hederacea, IPOHE); assay: as above; conditions: post-emerge, 14 days after application, rating scale 0-100
Method in brief: as §2

[9] = system: large crabgrass (Digitaria sanguinalis, DIGSA); assay: as above; conditions: post-emerge, 14 days after application, rating scale 0-100
Method in brief: as §2

[10] = system: sicklepod (Cassia obtusifolia, CASOB); assay: as above; conditions: post-emerge, 14 days after application, rating scale 0-100
Method in brief: as §2

[11] = system: lambsquarters (Chenopodium album, CHEAL); assay: Pre-emerge test, greenhouse herbicide activity screening; conditions: phytotoxicity rating 0-100, 14 days after application
Method in brief: as §2

[12] = system: green foxtail (Setaria viridis, SETVI); assay: as above; conditions: phytotoxicity rating 0-100, 14 days after application
Method in brief: as §2

[13] = system: barnyardgrass (Echinochloa crus-galli, ECHCG); assay: as above; conditions: phytotoxicity rating 0-100, 14 days after application
Method in brief: as §2

[14] = system: velvetleaf (Abutilon theophrasti, ABUTH); assay: as above; conditions: phytotoxicity rating 0-100, 14 days after application
Method in brief: as §2

[15] = system: ivyleaf morningglory (Ipomoea hederacea, IPOHE); assay: as above; conditions: phytotoxicity rating 0-100, 14 days after application
Method in brief: as §2

[16] = system: large crabgrass (Digitaria sanguinalis, DIGSA); assay: as above; conditions: phytotoxicity rating 0-100, 14 days after application
Method in brief: as §2

[17] = system: johnsongrass (Sorghum halepense, SORHA); assay: as above; conditions: phytotoxicity rating 0-100, 14 days after application
Method in brief: as §2

[18] = system: sicklepod (Cassia obtusifolia, CASOB); assay: as above; conditions: phytotoxicity rating 0-100, 14 days after application
Method in brief: as §2

[19] = system: redroot pigweed (Amaranthus retroflexus, AMARE); assay: as above; conditions: phytotoxicity rating 0-100, 14 days after application
Method in brief: as §1

[20] = system: upland rice (Oryza sp., var. Tebonnet, RICE); assay: Post-emerge test, crop safety; conditions: post-emerge, 14 days after application, rating scale 0-100
Method in brief: (§3)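 Each test used a mechanized track sprayer delivering 187 l/ha of acetone solution at 15–1000 g ai/ha. Post-emerge foliage at 2–3 leaves was treated with added 0.25% v/v non-ionic surfactant and bottom-watered only. Injury was assessed on day 14, where 100 means total kill.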

[21] = system: field corn (Zea mays L., var. Dekalb 535, CORN); assay: Post-emerge test, crop safety; conditions: post-emerge, 14 days after application, rating scale 0-100
Method in brief: as §3

[22] = 63 g ai/ha, rating scale 0-100 (0 no damage, 100 complete death)
[23] = 250 g ai/ha, rating scale 0-100

COc1c(Cl)cc(F)c(-n2c(=O)cc(C(F)(F)F)n(C)c2=O)c1NC(=O)OC(c1ccccc1)C1CC1 (stereo not drawn) [4-46]
Pre-emerge Herbicidal Activity RICE ([1]; 63 g ai/ha): 10 | Pre-emerge Herbicidal Activity RICE ([1]; 250 g ai/ha): 50 | Pre-emerge Herbicidal Activity CORN ([2]; 63 g ai/ha): 0 | Pre-emerge Herbicidal Activity CORN ([2]; 250 g ai/ha): 5 | phytotoxicity rating CHEAL ([3]; 63 g ai/ha): 90 | phytotoxicity rating CHEAL ([3]; 250 g ai/ha): 100 | phytotoxicity rating SETVI ([4]; 63 g ai/ha): 10 | phytotoxicity rating SETVI ([4]; 250 g ai/ha): 10 | phytotoxicity rating ECHCG ([5]; 63 g ai/ha): 20 | phytotoxicity rating ECHCG ([5]; 250 g ai/ha): 30 | phytotoxicity rating AMARE [6, 22]: 100 | phytotoxicity rating AMARE [6, 23]: 100 | phytotoxicity rating ABUTH ([7]; 63 g ai/ha): 95 | phytotoxicity rating ABUTH ([7]; 250 g ai/ha): 90 | phytotoxicity rating IPOHE ([8]; 63 g ai/ha): 100 | phytotoxicity rating IPOHE ([8]; 250 g ai/ha): 90 | phytotoxicity rating DIGSA ([9]; 63 g ai/ha): 0 | phytotoxicity rating DIGSA ([9]; 250 g ai/ha): 20 | phytotoxicity rating CASOB ([10]; 63 g ai/ha): 80 | phytotoxicity rating CASOB ([10]; 250 g ai/ha): 95 | Pre-emerge Herbicidal Activity CHEAL ([11]; 63 g ai/ha): 100 | Pre-emerge Herbicidal Activity CHEAL ([11]; 250 g ai/ha): 100 | Pre-emerge Herbicidal Activity SETVI ([12]; 63 g ai/ha): 40 | Pre-emerge Herbicidal Activity SETVI ([12]; 250 g ai/ha): 100 | Pre-emerge Herbicidal Activity ECHCG ([13]; 63 g ai/ha): 20 | Pre-emerge Herbicidal Activity ECHCG ([13]; 250 g ai/ha): 60 | Pre-emerge Herbicidal Activity ABUTH ([14]; 63 g ai/ha): 50 | Pre-emerge Herbicidal Activity ABUTH ([14]; 250 g ai/ha): 100 | Pre-emerge Herbicidal Activity IPOHE ([15]; 63 g ai/ha): 10 | Pre-emerge Herbicidal Activity IPOHE ([15]; 250 g ai/ha): 85 | Pre-emerge Herbicidal Activity DIGSA ([16]; 63 g ai/ha): 70 | Pre-emerge Herbicidal Activity DIGSA ([16]; 250 g ai/ha): 95 | Pre-emerge Herbicidal Activity SORHA ([17]; 63 g ai/ha): 20 | Pre-emerge Herbicidal Activity SORHA ([17]; 250 g ai/ha): 60 | Pre-emerge Herbicidal Activity CASOB ([18]; 63 g ai/ha): 30 | Pre-emerge Herbicidal Activity CASOB ([18]; 250 g ai/ha): 40 | Pre-emerge Herbicidal Activity AMARE ([19]; 63 g ai/ha): 80 | Pre-emerge Herbicidal Activity AMARE ([19]; 250 g ai/ha): 100 | phytotoxicity rating RICE (crop damage) ([20]; 63 g ai/ha): 10 | phytotoxicity rating RICE (crop damage) ([20]; 250 g ai/ha): 70 | phytotoxicity rating CORN (crop damage) ([21]; 63 g ai/ha): 10 | phytotoxicity rating CORN (crop damage) ([21]; 250 g ai/ha): 80

COc1c(Cl)cc(F)c(-n2c(=O)cc(C(F)(F)F)n(C)c2=O)c1NC(=O)OCc1c(F)c(F)c(F)c(F)c1F [4-48]
Pre-emerge Herbicidal Activity RICE ([1]; 63 g ai/ha): 20 | Pre-emerge Herbicidal Activity RICE ([1]; 250 g ai/ha): 70 | Pre-emerge Herbicidal Activity CORN ([2]; 63 g ai/ha): 30 | Pre-emerge Herbicidal Activity CORN ([2]; 250 g ai/ha): 50 | phytotoxicity rating CHEAL ([3]; 63 g ai/ha): 100 | phytotoxicity rating CHEAL ([3]; 250 g ai/ha): 100 | phytotoxicity rating SETVI ([4]; 63 g ai/ha): 30 | phytotoxicity rating SETVI ([4]; 250 g ai/ha): 40 | phytotoxicity rating ECHCG ([5]; 63 g ai/ha): 20 | phytotoxicity rating ECHCG ([5]; 250 g ai/ha): 80 | phytotoxicity rating AMARE [6, 22]: 100 | phytotoxicity rating AMARE [6, 23]: 100 | phytotoxicity rating ABUTH ([7]; 63 g ai/ha): 100 | phytotoxicity rating ABUTH ([7]; 250 g ai/ha): 100 | phytotoxicity rating IPOHE ([8]; 63 g ai/ha): 100 | phytotoxicity rating IPOHE ([8]; 250 g ai/ha): 100 | phytotoxicity rating DIGSA ([9]; 63 g ai/ha): 20 | phytotoxicity rating DIGSA ([9]; 250 g ai/ha): 40 | phytotoxicity rating CASOB ([10]; 63 g ai/ha): 95 | phytotoxicity rating CASOB ([10]; 250 g ai/ha): 100 | Pre-emerge Herbicidal Activity CHEAL ([11]; 63 g ai/ha): 100 | Pre-emerge Herbicidal Activity CHEAL ([11]; 250 g ai/ha): 100 | Pre-emerge Herbicidal Activity SETVI ([12]; 63 g ai/ha): 100 | Pre-emerge Herbicidal Activity SETVI ([12]; 250 g ai/ha): 100 | Pre-emerge Herbicidal Activity ECHCG ([13]; 63 g ai/ha): 50 | Pre-emerge Herbicidal Activity ECHCG ([13]; 250 g ai/ha): 70 | Pre-emerge Herbicidal Activity ABUTH ([14]; 63 g ai/ha): 100 | Pre-emerge Herbicidal Activity ABUTH ([14]; 250 g ai/ha): 100 | Pre-emerge Herbicidal Activity IPOHE ([15]; 63 g ai/ha): 80 | Pre-emerge Herbicidal Activity IPOHE ([15]; 250 g ai/ha): 100 | Pre-emerge Herbicidal Activity DIGSA ([16]; 63 g ai/ha): 100 | Pre-emerge Herbicidal Activity DIGSA ([16]; 250 g ai/ha): 100 | Pre-emerge Herbicidal Activity SORHA ([17]; 63 g ai/ha): 60 | Pre-emerge Herbicidal Activity SORHA ([17]; 250 g ai/ha): 90 | Pre-emerge Herbicidal Activity CASOB ([18]; 63 g ai/ha): 40 | Pre-emerge Herbicidal Activity CASOB ([18]; 250 g ai/ha): 100 | Pre-emerge Herbicidal Activity AMARE ([19]; 63 g ai/ha): 100 | Pre-emerge Herbicidal Activity AMARE ([19]; 250 g ai/ha): 100 | phytotoxicity rating RICE (crop damage) ([20]; 63 g ai/ha): 80 | phytotoxicity rating RICE (crop damage) ([20]; 250 g ai/ha): 80 | phytotoxicity rating CORN (crop damage) ([21]; 63 g ai/ha): 90 | phytotoxicity rating CORN (crop damage) ([21]; 250 g ai/ha): 90
